Results taken from article PMC9374667 (Communications Biology, 2022).
Converted amounts (≈) assume the structure as drawn. “And” between values parts separate entries of the source, which are not always exact repeats. Identical values can stand only once.

Legend:
[1] = pH of the solution after 24 hours of the dissolution test; assay type: physicochemical
Description: Solubilities were determined by adding excess sample to 30 mL different mediums, such as HCl solution, acetate buffer, phosphate buffer, SGF, FaSSIF and FeSSIF. The configuration of various buffer solutions is shown in Supplementary Table 2. After being shaken at 400 rpm at 37 °C for 0.5, 1, 2, and 24 h, 0.3 mL of suspension was sampled and centrifuged at 14,000 rpm for 8 min to isolate mother liquor, and then analyzed by HPLC after dilution. All samples were analyzed in triplicate. […]
into a 1000 mL flask followed by addition of about 800 mL of deionized water. The mixture is stirred until all solids are dissolved.
Add about 100 mL of 0.1 N HCl, check pH value with a pH meter and adjust the pH to 2.0 with HCl (1 N) or NaOH (1 N). Then dilute to the volume with deionized water.
* 1N sodium hydroxide: Weigh 8 g NaOH in a 200 mL plastic volumetric flask, add deionized water to volume and mix well. […]
phosphate and 3.093 g sodium chloride in a 500 mL volumetric flask, add about 0.450 L deionized water, and adjust the pH to 6.5 with 1N sodium hydroxide or 1 N hydrochloric acid. Make up to volume (0.5 […]
Step 2: Place and dissolve 1.120 g FaSSIF/FeSSIF/FaSSGF instant powder with 0.250 L of buffer (from step 1) in a 500 mL volumetric flask, then add buffer (from step 1) to volume, and mix well. […]
g sodium chloride in a 500 mL volumetric flask, add about 0.450 L deionized water, and adjust the pH to 5.0 with 1 N sodium hydroxide or 1 N hydrochloric acid. Make up to volume (500 mL) with
Step 2: Place and dissolve 5.600 g FaSSIF/FeSSIF/FaSSGF instant […]
0.750 L deionized water. Make up to volume (1000 mL) with deionized water and placed overnight.
(1 picture or pasted object on this page, not shown here)

[2] = test system: db/db mice; experiment: Serum CHO, TG, FFA, LDL-C, HDL-C and ADPN in the fasted state; assay type: in vivo
Description: The serum was collected by centrifugation at 3000 × g at 4 °C for 15 min and stored at −80 °C until analysis. TG, TC, LDL-C, HDL-C, and FFA were routinely tested on a Chemray 240 automatic biochemical analyzer (Chemray 240, Shenzhen, China). Serum levels of mouse adiponectin, interleukin6 (IL-6), tumor necrosis factor-α (TNF-α) were measured using commercial enzyme-linked immunosorbent assay (ELISA) kits (Nanjing Jiancheng Bioengineering Institute, Nanjing, China) and according to the manufacturer’s instructions. The levels of IL-6, TNF-α in 3T3-L1 adipocyte culture supernatant were also detected by ELISA.

[3] = test system: db/db mice; experiment: Fasting serum insulin levels (ELISA); assay type: in vivo; conditions: 150mg/kg, individual animals
Description: Mice were fasted for 4 h for insulin resistance test and intraperitoneally injected with 1 unit/kg of insulin. Blood glucose levels were measured from the tail vein blood at 0, 15, 30, 45, 60, 90, and 120 min after injection. Plasma insulin levels were measured using an ultrasensitive mouse insulin ELISA kit (Nanjing Jiancheng Bioengineering Institute, Nanjing, China).

[4] = In vitro dissolution studies: dynamic solubility in buffers and simulated biological fluids; assay type: physicochemical; parameters: BBR dissolved in CMC-Na (Figure S7a) / Ibu dissolved in CMC-Na (Figure S7b): unit not given here; conditions: mean; for solubility at 0.5 h / solubility at 1 h / solubility at 2 h / solubility at 24 h: 37 °C
Description: Solubilities were determined by adding excess sample to 30 mL different mediums, such as HCl solution, acetate buffer, phosphate buffer, SGF, FaSSIF and FeSSIF. The configuration of various buffer solutions is shown in Supplementary Table 2. After being shaken at 400 rpm at 37 °C for 0.5, 1, 2, and 24 h, 0.3 mL of suspension was sampled and centrifuged at 14,000 rpm for 8 min to isolate mother liquor, and then analyzed by HPLC after dilution. All samples were analyzed in triplicate.

[5] = test system: db/db mice; experiment: HE staining of epididymal adipose tissue, adipocyte size; assay type: in vivo; conditions: BJ 75 and 150 mg/kg, BBR 150 mg/kg, Ibu 150 mg/kg
Description: The adipose tissue was fixed overnight in 4% paraformaldehyde, then embedded in paraffin and cut into 5 µm thick slices. Tissue sections were stained with hematoxylin and eosin (H&E). For immunohistochemistry, sections were incubated with primary antibodies against F4/80 (1:100 dilution) diluted in the blocking solution at 4 °C overnight. The tissue sections were then incubated with the horseradish peroxidase (HRP)-conjugated secondary antibody at room temperature for 2 h. Finally, the sections were developed with diaminobenzidine (DAB) and counterstained with hematoxylin. Images were obtained under a microscope. To quantify the F4/80-positive macrophages, two random fields per sample were analyzed by Image J software. The IHC profiler plugin of ImageJ was used to calculate the F4/80 positive area.

[6] = test system: db/db mice; experiment: Glucose tolerance test (GTT); assay type: in vivo; conditions: 150mg/kg
[7] = 150mg/kg, serum, individual animals
[8] = db/db mice, vs vehicle, BJ 75 and 150 mg/kg, BBR 150 mg/kg, Ibu 150 mg/kg
[9] = aqueous buffer, thermodynamic from solid, Acetate buffer (pH 4.5)
[10] = fasted state simulated intestinal fluid (FaSSIF-V1), FaSSIF-V1 (pH 6.5)
[11] = fed state simulated intestinal fluid (FeSSIF-V1), thermodynamic from solid, FeSSIF-V1 (pH 5.0)
[12] = simulated gastric fluid (SGF), SGF (pH 2.0)

Compound: CC(C)Cc1ccc(C(C)C(=O)O)cc1 (stereo not shown) [Ibu, Ibuprofen, reference compound]
- pH of the solution after 24 hours ([1]; Acetate buffer, blank vehicle 4.54): 4.56
- pH of the solution after 24 hours ([1]; CMC-Na, blank vehicle 6.51): 5.57
- pH of the solution after 24 hours ([1]; FaSSIF-v1, blank vehicle 6.51): 6.04
- pH of the solution after 24 hours ([1]; FeSSIF-v1, blank vehicle 5.04): 5.05
- pH of the solution after 24 hours ([1]; HCl solution, blank vehicle 1.08): 1.07
- pH of the solution after 24 hours ([1]; Phosphate buffer, blank vehicle 6.84): 6.60
- pH of the solution after 24 hours ([1]; SGF, blank vehicle 2.03): 2.00
- CHO [2, 7]: 4.079 mmol/L and 3.798 mmol/L and 4.949 mmol/L and 5.236 mmol/L and 4.727 mmol/L and 4.145 mmol/L
- FFA [2, 7]: 912.261 µmol/L and 870.411 µmol/L and 861.968 µmol/L and 886.564 µmol/L and 965.859 µmol/L and 978.341 µmol/L
- HDL-C [2, 7]: 1.7462 mmol/L and 1.7831 mmol/L and 1.9083 mmol/L and 2.0311 mmol/L
- LDL-C [2, 7]: 5.9624 mmol/L and 6.6672 mmol/L and 7.0004 mmol/L and 6.9602 mmol/L and 5.8098 mmol/L and 6.6236 mmol/L
- Mouse ADPN [2, 7]: 593.01 ng/mL and 440.43 ng/mL and 462.23 ng/mL and 556.39 ng/mL and 491.43 ng/mL and 431.93 ng/mL
- TG [2, 7]: 1.761 mmol/L and 1.861 mmol/L and 1.959 mmol/L and 1.91 mmol/L and 1.579 mmol/L and 1.279 mmol/L
- Serum levels of CHO, TG, FFA and LDL-C [2, 8]: not significantly different
- Serum levels of HDL-C and adiponectin (ADPN) [2, 8]: not significantly different
- Insulin [3]: 16.07 mIU/L and 14.41 mIU/L and 14.02 mIU/L and 15.71 mIU/L and 12.42 mIU/L and 14.35 mIU/L
- solubility at 0.5 h ([4]; Acetate buffer (pH 4.5)): 89.5 µg/mL (≈ 0.434 mM)
- solubility at 1 h ([4]; Acetate buffer (pH 4.5)): 103 µg/mL (≈ 0.497 mM)
- Ibu dissolved in CMC-Na (Figure S7b) ([4]; time 0.5): 0.09941
- Ibu dissolved in CMC-Na (Figure S7b) ([4]; time 1): 0.1517
- Ibu dissolved in CMC-Na (Figure S7b) ([4]; time 24): 0.385
- solubility at 0.5 h ([4]; Phosphate buffer (pH 6.8)): 2650 µg/mL (≈ 12.9 mM)
- solubility at 1 h ([4]; Phosphate buffer (pH 6.8)): 2680 µg/mL (≈ 13 mM)
- solubility at 2 h [4, 9]: 124 µg/mL (≈ 0.603 mM)
- solubility at 24 h [4, 9]: 125 µg/mL (≈ 0.605 mM)
- solubility at 2 h ([4]; aqueous buffer, thermodynamic from solid, Phosphate buffer (pH 6.8)): 2900 µg/mL (≈ 14.1 mM)
- solubility at 24 h ([4]; fasted state simulated intestinal fluid (FaSSIF-V1), thermodynamic from solid, FaSSIF-V1 (pH 6.5)): 1480 µg/mL (≈ 7.16 mM)
- solubility at 0.5 h [4, 10]: 1660 µg/mL (≈ 8.07 mM)
- solubility at 1 h [4, 10]: 1610 µg/mL (≈ 7.8 mM)
- solubility at 2 h [4, 10]: 1610 µg/mL (≈ 7.81 mM)
- solubility at 0.5 h [4, 11]: 798 µg/mL (≈ 3.87 mM)
- solubility at 1 h [4, 11]: 780 µg/mL (≈ 3.78 mM)
- solubility at 2 h [4, 11]: 890 µg/mL (≈ 4.31 mM)
- solubility at 24 h [4, 11]: 705 µg/mL (≈ 3.42 mM)
- solubility at 0.5 h [4, 12]: 51.9 µg/mL (≈ 0.252 mM)
- solubility at 1 h [4, 12]: 70.4 µg/mL (≈ 0.341 mM)
- solubility at 2 h [4, 12]: 77.3 µg/mL (≈ 0.375 mM)
- solubility at 24 h [4, 12]: 59.9 µg/mL (≈ 0.29 mM)
- Size of adipocytes in eWAT compared with vehicle [5]: not significantly different
- Blood Glucose (Figure S9p) ([6]; time 0, individual animals): 23.3 mmol/L and 18.9 mmol/L and 18.7 mmol/L and 22.0 mmol/L
- Blood Glucose (Figure S9p) ([6]; time 15, individual animals): 33.3 mmol/L
- Blood Glucose (Figure S9p) ([6]; time 30, individual animals): 33.3 mmol/L
- Blood Glucose (Figure S9p) ([6]; time 45, individual animals): 33.3 mmol/L
- Blood Glucose (Figure S9p) ([6]; time 60, individual animals): 33.3 mmol/L and 31.7 mmol/L and 32.4 mmol/L
- Blood Glucose (Figure S9p) ([6]; time 90, individual animals): 33.3 mmol/L and 29.2 mmol/L and 22.9 mmol/L
- Blood Glucose (Figure S9p) ([6]; time 120, individual animals): 30.3 mmol/L and 22.8 mmol/L and 23.9 mmol/L
